Laboratory results reported in the supplement of paper PMC10307832.

How the values were obtained:
Assay in all cases: relative viability (nuclei count vs DMSO), 5 days (fraction); higher = more cells survive
[1] = compound: CN(C)CC1=CC(=CC=C1)N=C(C2=CC=CC=C2)C3=C(NC4=C3C=CC(=C4)C(=O)N(C)C)O + CCNC(=O)c1noc(-c2cc(C(C)C)c(O)cc2O)c1-c1ccc(CN2CCOCC2)cc1 [Luminespib] (partner 0.01 µM)
Summary of the method: (§1)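 For relative viability, nuclei counts in treated wells were divided by those in vehicle wells. Lung cancer cell lines had been pin-tool dosed in 1536-well plates the day after seeding and cultured for 5 days, then fixed and stained in one step (final 0.05% Triton X-100, 1% formaldehyde, 1 ug/ml Hoechst) and imaged at 4×. Doses were one drug alone or a fixed anchor-drug dose plus five library-drug doses (not always all listed) in √10 steps, and values are duplicate-plate medians.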

[2] = compound: CN(C)CC1=CC(=CC=C1)N=C(C2=CC=CC=C2)C3=C(NC4=C3C=CC(=C4)C(=O)N(C)C)O + CS(=O)(=O)CCNCc1ccc(-c2ccc3ncnc(Nc4ccc(OCc5cccc(F)c5)c(Cl)c4)c3c2)o1 [Lapatinib] (partner 2 µM)
Summary of the method: as §1

[3] = compound: CN(C)CC1=CC(=CC=C1)N=C(C2=CC=CC=C2)C3=C(NC4=C3C=CC(=C4)C(=O)N(C)C)O + Nc1ncn([C@H]2C[C@H](O)[C@@H](CO)O2)c(=O)n1 [Decitabine] (partner 2 µM)
Summary of the method: as §1

[4] = compound: CN(C)CC1=CC(=CC=C1)N=C(C2=CC=CC=C2)C3=C(NC4=C3C=CC(=C4)C(=O)N(C)C)O + O=C(c1cc(Cc2n[nH]c(=O)c3ccccc23)ccc1F)N1CCN(C(=O)C2CC2)CC1 [Olaparib] (partner 8 µM)
Summary of the method: as §1

PC-3 [JPC-3]
relative viability ([1]; first compound 0.08 µM): 0.705
relative viability ([1]; first compound 0.253 µM): 0.69
relative viability ([1]; first compound 0.8 µM): 0.707
relative viability ([1]; first compound 2.53 µM): 0.751
relative viability ([1]; first compound 8 µM): 0.695
relative viability ([2]; first compound 0.08 µM): 0.436
relative viability ([2]; first compound 0.253 µM): 0.458
relative viability ([2]; first compound 0.8 µM): 0.435
relative viability ([2]; first compound 2.53 µM): 0.465
relative viability ([2]; first compound 8 µM): 0.444
relative viability ([3]; first compound 0.08 µM): 0.761
relative viability ([3]; first compound 0.253 µM): 0.763
relative viability ([3]; first compound 0.8 µM): 0.804
relative viability ([3]; first compound 2.53 µM): 0.837
relative viability ([3]; first compound 8 µM): 0.842
relative viability ([4]; first compound 0.08 µM): 1.12
relative viability ([4]; first compound 0.253 µM): 1.05
relative viability ([4]; first compound 0.8 µM): 1.01
relative viability ([4]; first compound 2.53 µM): 1.12
relative viability ([4]; first compound 8 µM): 1.11

CAL-12T
relative viability ([1]; first compound 0.08 µM): 0.27
relative viability ([1]; first compound 0.253 µM): 0.451
relative viability ([1]; first compound 0.8 µM): 0.877
relative viability ([1]; first compound 2.53 µM): 0.542
relative viability ([1]; first compound 8 µM): 0.376
relative viability ([2]; first compound 0.253 µM): 0.746
relative viability ([2]; first compound 0.8 µM): 0.878
relative viability ([2]; first compound 8 µM): 0.755
relative viability ([4]; first compound 0.08 µM): 0.704
relative viability ([4]; first compound 0.253 µM): 0.67
relative viability ([4]; first compound 0.8 µM): 0.81
relative viability ([4]; first compound 2.53 µM): 0.654
relative viability ([4]; first compound 8 µM): 0.829

NCI-H1437
relative viability ([1]; first compound 0.08 µM): 1.12
relative viability ([1]; first compound 0.253 µM): 1.14
relative viability ([1]; first compound 0.8 µM): 1.2
relative viability ([1]; first compound 2.53 µM): 1.06
relative viability ([1]; first compound 8 µM): 1.2
relative viability ([2]; first compound 0.08 µM): 0.839
relative viability ([2]; first compound 0.253 µM): 0.772
relative viability ([2]; first compound 0.8 µM): 0.978
relative viability ([2]; first compound 2.53 µM): 0.775
relative viability ([2]; first compound 8 µM): 0.835
relative viability ([3]; first compound 0.08 µM): 0.559
relative viability ([3]; first compound 0.253 µM): 0.609
relative viability ([3]; first compound 0.8 µM): 0.576
relative viability ([3]; first compound 2.53 µM): 0.577
relative viability ([3]; first compound 8 µM): 0.685
relative viability ([4]; first compound 0.08 µM): 0.621
relative viability ([4]; first compound 0.253 µM): 0.659
relative viability ([4]; first compound 0.8 µM): 0.634
relative viability ([4]; first compound 2.53 µM): 0.622
relative viability ([4]; first compound 8 µM): 0.635

RERF-LC-KJ
relative viability ([1]; first compound 0.08 µM): 1.34
relative viability ([1]; first compound 0.253 µM): 1.4
relative viability ([1]; first compound 0.8 µM): 1.25
relative viability ([1]; first compound 2.53 µM): 1.13
relative viability ([1]; first compound 8 µM): 1.23
relative viability ([2]; first compound 0.08 µM): 0.917
relative viability ([2]; first compound 0.253 µM): 0.882
relative viability ([2]; first compound 0.8 µM): 0.834
relative viability ([2]; first compound 2.53 µM): 0.793
relative viability ([2]; first compound 8 µM): 0.859
relative viability ([3]; first compound 0.08 µM): 0.746
relative viability ([3]; first compound 0.253 µM): 0.644
relative viability ([3]; first compound 0.8 µM): 0.801
relative viability ([3]; first compound 2.53 µM): 0.671
relative viability ([3]; first compound 8 µM): 0.713
relative viability ([4]; first compound 0.08 µM): 0.971
relative viability ([4]; first compound 0.253 µM): 0.906
relative viability ([4]; first compound 0.8 µM): 0.882
relative viability ([4]; first compound 2.53 µM): 0.9
relative viability ([4]; first compound 8 µM): 0.904

Calu-6
relative viability ([2]; first compound 0.08 µM): 1.13
relative viability ([2]; first compound 0.253 µM): 1.01
relative viability ([2]; first compound 0.8 µM): 1.02
relative viability ([2]; first compound 2.53 µM): 1.07
relative viability ([2]; first compound 8 µM): 1.03
relative viability ([4]; first compound 0.08 µM): 0.558
relative viability ([4]; first compound 0.253 µM): 0.549
relative viability ([4]; first compound 0.8 µM): 0.571
relative viability ([4]; first compound 2.53 µM): 0.565
relative viability ([4]; first compound 8 µM): 0.63

IA-LM
relative viability ([2]; first compound 0.08 µM): 0.781
relative viability ([2]; first compound 0.253 µM): 0.916
relative viability ([2]; first compound 0.8 µM): 0.872
relative viability ([2]; first compound 2.53 µM): 0.948
relative viability ([2]; first compound 8 µM): 1.07
relative viability ([4]; first compound 0.08 µM): 0.941
relative viability ([4]; first compound 0.253 µM): 0.793
relative viability ([4]; first compound 0.8 µM): 1.02
relative viability ([4]; first compound 2.53 µM): 0.957
relative viability ([4]; first compound 8 µM): 0.962

NCI-H1703
relative viability ([2]; first compound 0.08 µM): 1.12
relative viability ([2]; first compound 0.253 µM): 1.22
relative viability ([2]; first compound 0.8 µM): 1.48
relative viability ([2]; first compound 2.53 µM): 0.762
relative viability ([2]; first compound 8 µM): 0.296
relative viability ([4]; first compound 0.08 µM): 0.375
relative viability ([4]; first compound 0.253 µM): 0.559
relative viability ([4]; first compound 0.8 µM): 0.39
relative viability ([4]; first compound 2.53 µM): 0.199
relative viability ([4]; first compound 8 µM): 0.214

HCC-366
relative viability ([2]; first compound 0.08 µM): 0.949
relative viability ([2]; first compound 0.253 µM): 0.939
relative viability ([2]; first compound 0.8 µM): 1.07
relative viability ([2]; first compound 2.53 µM): 1.01
relative viability ([2]; first compound 8 µM): 1.08
relative viability ([3]; first compound 0.08 µM): 0.385
relative viability ([3]; first compound 0.253 µM): 0.36
relative viability ([3]; first compound 0.8 µM): 0.34
relative viability ([3]; first compound 2.53 µM): 0.333
relative viability ([3]; first compound 8 µM): 0.341
relative viability ([4]; first compound 0.08 µM): 0.339
relative viability ([4]; first compound 0.253 µM): 0.371
relative viability ([4]; first compound 0.8 µM): 0.437
relative viability ([4]; first compound 2.53 µM): 0.347
relative viability ([4]; first compound 8 µM): 0.304

ChaGo-K-1
relative viability ([1]; first compound 0.08 µM): 0.688
relative viability ([1]; first compound 0.253 µM): 0.612
relative viability ([1]; first compound 0.8 µM): 0.668
relative viability ([1]; first compound 2.53 µM): 0.529
relative viability ([1]; first compound 8 µM): 0.598
relative viability ([3]; first compound 0.08 µM): 0.524
relative viability ([3]; first compound 0.253 µM): 0.516
relative viability ([3]; first compound 0.8 µM): 0.523
relative viability ([3]; first compound 2.53 µM): 0.418
relative viability ([3]; first compound 8 µM): 0.485
relative viability ([4]; first compound 0.08 µM): 0.386
relative viability ([4]; first compound 0.253 µM): 0.458
relative viability ([4]; first compound 0.8 µM): 0.41
relative viability ([4]; first compound 2.53 µM): 0.355
relative viability ([4]; first compound 8 µM): 0.415

NCI-H441
relative viability ([1]; first compound 0.08 µM): 0.303
relative viability ([1]; first compound 0.253 µM): 0.304
relative viability ([1]; first compound 0.8 µM): 0.364
relative viability ([1]; first compound 2.53 µM): 0.381
relative viability ([1]; first compound 8 µM): 0.354
relative viability ([3]; first compound 0.08 µM): 0.248
relative viability ([3]; first compound 0.253 µM): 0.282
relative viability ([3]; first compound 0.8 µM): 0.282
relative viability ([3]; first compound 2.53 µM): 0.237
relative viability ([3]; first compound 8 µM): 0.221
relative viability ([4]; first compound 0.08 µM): 0.728
relative viability ([4]; first compound 0.253 µM): 0.588
relative viability ([4]; first compound 0.8 µM): 0.627
relative viability ([4]; first compound 2.53 µM): 0.461
relative viability ([4]; first compound 8 µM): 0.499

HCC-78
relative viability ([2]; first compound 0.08 µM): 0.785
relative viability ([2]; first compound 0.253 µM): 1.48
relative viability ([2]; first compound 0.8 µM): 0.722
relative viability ([2]; first compound 2.53 µM): 0.707
relative viability ([2]; first compound 8 µM): 0.741
relative viability ([3]; first compound 0.08 µM): 0.564
relative viability ([3]; first compound 0.253 µM): 0.716
relative viability ([3]; first compound 0.8 µM): 0.766
relative viability ([3]; first compound 2.53 µM): 0.681
relative viability ([3]; first compound 8 µM): 0.665
relative viability ([4]; first compound 0.08 µM): 0.599
relative viability ([4]; first compound 0.253 µM): 0.816
relative viability ([4]; first compound 0.8 µM): 0.776
relative viability ([4]; first compound 2.53 µM): 0.742
relative viability ([4]; first compound 8 µM): 0.862
